Legend:
mature neurons [1] = assay: inhibition of beta amyloid peptide toxicity in mature neurons; type: cell-based, human
Protocol: In measuring the ability of inhibiting apoptosis, mature neurons (3-4 weeks following initiation of differentiation) were treated with staurosporine to induce apoptosis. A low concentration of staurosporine (10-100 nM) or beta amyloid 1-42 peptide at 1-10 μM or peptide beta amyloid 25-35 at 10-75 μM concentration was used to stimulate apoptosis. At the same time as treating with staurosporine, the neurons were treated with vehicle or one of the test agents. […] Each compound's inhibitory ability was compared with vehicle and staurosporine.
Necrosis of the mature neurons was initiated using beta amyloid 1-42 peptide at 1-10 μM or peptide beta amyloid 25-35 at 10-75 μM concentration. This synthetic peptide was of the same length naturally found in AD brain. Because lactate dehydrogenase (LDH) is released from cells when the plasma membrane is impaired, the cell loss was quantified by the amount of LDH released into the media following a 24-48 hr treatment. The ability of neurogenic agents to reduce the LDH release induced by beta amyloid, versus vehicle control was used as the measurement of inhibition of neuron degeneration.

[2] = tested on: human neuronal progenitors cells; assay: in vitro neurogenesis test (MAP-2 staining, neuron number); type: cell-based; conditions: MAP-2 staining on day 11; human neuronal progenitors in differentiation media
Protocol: The in vitro neurogenesis test was performed using human neuronal progenitors cells. By way of background, the human neuronal progenitor cells can be cultured in media and have the potential to produce mature functional neurons. The neurogenesis factor in the culture media can promote the number of the progenitor cells which differentiate into neurons. Indeed, it is a widely accepted in vitro model to test a chemical's neurogenetic property.
Cells were obtained as human neuronal progenitors from a commercial source and were grown for up to three passages or at any time differentiated to potentially produce mature functional neurons in culture. Following two passages to expand the cells, progenitors were seeded into multi-well microplates and the media were changed to differentiation media (minus serum and mitogen). Within 2 hrs of this media change, a vehicle, positive control or test compound were added to each well. Also, they were added with every further media change (50% volume change every other day). Control wells contained cells and vehicle (0.2% DMSO in DMEM/F12). […]
The cells were stained using MAP-2, a neuronal marker, on day 11. Then, each test compound was assessed for the ability to promote an increase in neuron number and compared with the positive control, leukemia inhibitory factor (LIF).

mature neurons [3] = assay: LDH assay of neuron degeneration due to hydrogen peroxide toxicity; type: cell-based, human; conditions: hydrogen peroxide for 8 hrs, vehicle control = 0% inhibition, n = 5 wells

Molecule: 4-Benzo-8-aza-bicyclo[3.2.1]oct-3-yl)-3-(2-chloro-phenyl)-thiourea
- % Inhibition of beta amyloid peptide toxicity (mature neurons [1]): 68%

Molecule: COCCN(Cc1cc2ccc(C)c(C)c2nc1Cl)C(=O)Nc1ccccc1OC [1-(2-Chloro-7,8-dimethyl-quinolin-3-ylmethyl)-1-(2-methoxy-ethyl)-3-(2-methoxy-phenyl)-urea]
- increase in the neuron numbers compared with the vehicle control, % of Control [2]: 132 % of Control

Molecule: COc1ccccc1NC(=S)N1CCCN(c2nc3cc(C)cc(C)c3cc2C#N)CC1 [4-(3-Cyano-5,7-dimethyl-quinolin-2-yl)-[1,4]diazepane-1-carbothioic acid (2-methoxy-phenyl)-amide]
- increase in the neuron numbers compared with the vehicle control, % of Control [2]: 110 % of Control
- % Inhibition of neuron degeneration due to hydrogen peroxide toxicity (mature neurons [3]): 50%
- % Inhibition of beta amyloid peptide toxicity (mature neurons [1]): 84%
